Reference: publication PMC9130746, “In Vitro Activity of Peptide Antibiotics in Combination With Other Antimicrobials on Extensively Drug-Resistant Acinetobacter baumannii in the Planktonic and Biofilm Cell” (Frontiers in Pharmacology, 2022)
Values after ≈ are worked out from the molar mass of the structure shown. Where two headings read alike, the source gives them in different places. Bridge positions count the residues as written; N and C are the ends. Square brackets hold non-standard residues; d marks the D form. Peptide text beside a SMILES is read from it. * marks the point of attachment. Ileψ(thiazoline)Cys = CC[C@H](C)[C@H](N)C1=N[C@H](C(=O)*)CS1; dOrn = NCCC[C@@H](N)C(=O)O; X1 = CC[C@H](C)CCCCC(=O)*; Dab = NCC[C@H](N)C(=O)O

How the values were obtained:
Assay type in all cases: cell-based, Acinetobacter baumannii
[1] = tested on: extensively drug-resistant A. baumannii clinical isolates (biofilm cell)
Source text: (§1) Nine XDRAB strains were isolated from clinical specimens such as the septum, urine, or respiratory lavage fluid of patients from the respiratory intensive care unit, intensive care unit, the cardiothoracic surgery department, and the neurology department at the First Affiliated Hospital of Chengdu Medical College during the period from 2018 to 2020 (Chengdu, Sichuan, China). In addition, A. baumannii ATCC 19606, Staphylococcus aureus ATCC 29213, and Escherichia coli ATCC 25922 were used as quality control strains in antimicrobial susceptibility testing (AST) and obtained from the American Type Culture Collection (ATCC, Manassas, VA, United States).
The minimum biofilm inhibitory concentrations (MBICs) were detected using a previous study protocol ([Kart et al., 2021]) for the antibacterial agents and peptide antibiotics for A. baumannii in the biofilm cell. First, bacterial cells were inoculated in Luria–Bertani agar medium at 37°C for 16–20 h. Next, the bacterial monoclones were resuspended in saline (0.9% sodium chloride) to adjust the bacterial content to reach the 0.5 McFarland turbidity standard. Then, 190 µl TSB and 10 µl bacterial resuspension were mixed in a 96-well plate. After incubating at 37°C for 24 h, the medium was aspirated, and 200 µl PBS was added to wash three times. Finally, 190 μl MH broth medium and 10 µl corresponding antibiotics were added into 96-well plate (NEST TC, 701001, www.cell-nest.com). The optical density was measured at OD600 after incubating for 16–20 h at 37°C.

[2] = tested on: extensively drug-resistant A. baumannii clinical isolates (planktonic cell); experiment: microbe, parasite or virus in culture
Source text: as §1
The minimum inhibitory concentrations (MICs) were determined by the broth microdilution method for the antibacterial agents and peptide antibiotics for A. baumannii based on the guidelines provided by the Clinical and Laboratory Standards Institute (CLSI) ([Humphries et al., 2021]). Briefly, bacterial cells were inoculated in Luria–Bertani agar medium at 37°C for 16–20 h, and then resuspended in saline (0.9% sodium chloride) to adjust the bacterial content to reach the 0.5 McFarland turbidity standard, followed by a 20-fold dilution. Antimicrobial solutions were prepared according to the CLSI ([Humphries et al., 2021]). Finally, 180 μl CAMHB, 10 µl corresponding antimicrobials, and 10 µl bacterial resuspension were added into 96-well plate (NEST TC, 701001, www.cell-nest.com). The value of OD600 was measured after incubating at 37°C for 16–20 h.

[3] = tested on: extensively drug-resistant A. baumannii isolates (biofilm cell); experiment: Checkerboard synergy study in the biofilm cell (FBIC); conditions: in combination with polymyxins
Protocol: The checkerboard method, the fractional inhibitory concentration index (FICI), and the fractional biofilm inhibitory concentration index (FBIC) evaluated the synergistic effects of five peptide antibiotics combined with one of the five antimicrobials in the planktonic and biofilm cells among the nine XDRAB isolates. The planktonic cells were investigated by adding 170 µl of MHB and 10 µl of bacterial suspension (1.5 × 10^8 CFU/ml) into the 96 well plates. It was followed by adding 10 µl of serially diluted peptide antibiotics along the x-axis and antimicrobials along the y-axis. The biofilm cells were studied by cultivating the bacteria to form the biofilm into a 96-well plate (NEST TC, 701001, www.cell-nest.com) and washed with 200 µl of PBS three times. The following steps were consistent with the planktonic study. The value of OD600 was measured after incubating at 37°C for 20 h. The FICI and FBIC were evaluated as follows: Synergy between the two drugs was defined as either a FICI or an FBIC of ≤0.5, >0.5–1 for additivity, >1–2 for indifference, and >2 for antagonism ([Kim et al., 2015]; [Peng et al., 2020]; [Lin et al., 2021]).

[4] = isolate AB1, 24 h biofilm in TSB, then MH broth with drug 16–20 h 37°C, OD600
[5] = isolate AB2, 24 h biofilm in TSB, then MH broth with drug 16–20 h 37°C, OD600
[6] = isolate AB3, 24 h biofilm in TSB, then MH broth with drug 16–20 h 37°C, OD600
[7] = isolate AB4, 24 h biofilm in TSB, then MH broth with drug 16–20 h 37°C, OD600
[8] = isolate AB5, 24 h biofilm in TSB, then MH broth with drug 16–20 h 37°C, OD600
[9] = isolate AB6, 24 h biofilm in TSB, then MH broth with drug 16–20 h 37°C, OD600
[10] = isolate AB7, 24 h biofilm in TSB, then MH broth with drug 16–20 h 37°C, OD600
[11] = isolate AB8, 24 h biofilm in TSB, then MH broth with drug 16–20 h 37°C, OD600
[12] = isolate AB9, 24 h biofilm in TSB, then MH broth with drug 16–20 h 37°C, OD600
[13] = isolate AB1, planktonic, broth microdilution, CAMHB, 37°C 16–20 h, OD600
[14] = isolate AB2, planktonic, broth microdilution, CAMHB, 37°C 16–20 h, OD600
[15] = isolate AB3, planktonic, broth microdilution, CAMHB, 37°C 16–20 h, OD600
[16] = isolate AB4, planktonic, broth microdilution, CAMHB, 37°C 16–20 h, OD600
[17] = isolate AB5, planktonic, broth microdilution, CAMHB, 37°C 16–20 h, OD600
[18] = isolate AB6, planktonic, broth microdilution, CAMHB, 37°C 16–20 h, OD600
[19] = isolate AB7, planktonic, broth microdilution, CAMHB, 37°C 16–20 h, OD600
[20] = isolate AB8, planktonic, broth microdilution, CAMHB, 37°C 16–20 h, OD600
[21] = isolate AB9, planktonic, broth microdilution, CAMHB, 37°C 16–20 h, OD600

| Compound | MBIC [1, 4] [µg/mL] | MBIC [1, 5] [µg/mL] | MBIC [1, 6] [µg/mL] | MBIC [1, 7] [µg/mL] | MBIC [1, 8] [µg/mL] | MBIC [1, 9] [µg/mL] | MBIC [1, 10] [µg/mL] | MBIC [1, 11] [µg/mL] | MBIC [1, 12] [µg/mL] | MIC [2, 13] [µg/mL] | MIC [2, 14] [µg/mL] | MIC [2, 15] [µg/mL] | MIC [2, 16] [µg/mL] | MIC [2, 17] [µg/mL] | MIC [2, 18] [µg/mL] | MIC [2, 19] [µg/mL] | MIC [2, 20] [µg/mL] | MIC [2, 21] [µg/mL] | also measured |
| --- | --- | --- | --- | --- | --- | --- | --- | --- | --- | --- | --- | --- | --- | --- | --- | --- | --- | --- | --- |
| CC[C@H](C)CCCCC(=O)N[C@@H](CCN)C(=O)N[C@H](C(=O)N[C@@H](CCN)C(=O)N[C@H]1CCNC(=O)[C@H]([C@@H](C)O)NC(=O)[C@H](CCN)NC(=O)[C@H](CCN)NC(=O)[C@H](CC(C)C)NC(=O)[C@@H](Cc2ccccc2)NC(=O)[C@H](CCN)NC1=O)[C@@H](C)O [Polymyxin B, polymyxin B] (X1-[Dab]T[Dab][Dab][Dab][dF]L[Dab][Dab]T; lactam 4-C (inferred); N-terminus assumed) | 16 | 16 | 8 | 8 | 16 | 16 | 8 | 8 | 8 | 2 (≈ 1.66 µM) | 1 (≈ 0.831 µM) | 1 (≈ 0.831 µM) | 2 (≈ 1.66 µM) | 2 (≈ 1.66 µM) | 1 (≈ 0.831 µM) | 2 (≈ 1.66 µM) | 2 (≈ 1.66 µM) | 2 (≈ 1.66 µM) | – |
| polymyxin E | 16 | 8 | 4 | 4 | 8 | 8 | 8 | 4 | 8 | 2 | 1 | 1 | 2 | 2 | 1 | 2 | 2 | 2 | – |
| CC[C@H]1OC(=O)[C@H](C)[C@@H](O[C@H]2C[C@@](C)(OC)[C@@H](O)[C@H](C)O2)[C@H](C)[C@@H](O[C@@H]2O[C@H](C)C[C@H](N(C)C)[C@H]2O)[C@](C)(O)C[C@@H](C)CN(C)[C@H](C)[C@@H](O)[C@]1(C)O [azithromycin] | – | – | – | – | – | – | – | – | – | – | – | – | – | – | – | – | – | – | MBIC when combined with polymyxins [3]: 128 µg/mL |
| CC[C@H](C)[C@H](N)C1=N[C@H](C(=O)N[C@@H](CC(C)C)C(=O)N[C@H](CCC(=O)O)C(=O)N[C@H](C(=O)N[C@H]2CCCCNC(=O)[C@H](CC(N)=O)NC(=O)[C@@H](CC(=O)O)NC(=O)[C@H](Cc3cnc[nH]3)NC(=O)[C@@H](Cc3ccccc3)NC(=O)[C@H]([C@@H](C)CC)NC(=O)[C@@H](CCCN)NC2=O)[C@@H](C)CC)CS1 [Bacitracin, bacitracin] ({Ileψ(thiazoline)Cys}-L[dE]IK[dOrn]I[dF]H[dD]N; lactam 4-C (inferred); N-terminus assumed) | – | – | – | – | – | – | – | – | – | – | – | 128 (≈ 90 µM) | 128 (≈ 90 µM) | 128 (≈ 90 µM) | 128 (≈ 90 µM) | – | 128 (≈ 90 µM) | 128 (≈ 90 µM) | MBIC ([1]; extensively drug-resistant clinical isolates (biofilm cell, 24 h)): 256 µg/mL; MIC [2]: 64 µg/mL (≈ 45 µM) |
